# Reference: US12378250B2, “Tricyclic compound as IRAK4 inhibitor” (KOREA RESEARCH INSTITUTE OF CHEMICAL TECHNOLOGY, priority 2018, dated 2025)
# What was measured:
# [1] = system: TMD-8 cells (B-cell lymphoma cell line); assay: Antitumor effect in SCID mice transplanted with TMD-8; format: in vivo
# Experimental: As experimental animals, severe combined immunodeficiency (SCID) mice (C.B-17/IcrCrj-scid, female) were purchased from Charles River Laboratories Japan, Inc., and used. The mice were acclimatized for 2 weeks or more in an animal room, where temperature (22±1° C.) and humidity (50±10%) were automatically adjusted, and then used for experiments, and allowed to freely ingest water and feed. This animal experiment was performed with the approval of the Animal Care and Use Committee of the Korea Research Institute of Chemical Technology. As a TMD-8 cell line, which is a B-cell lymphoma cell line, a cell line whose subculture had been maintained in the Korea Research Institute of Chemical Technology was used.
# Tumors in SCID mice were induced by transplanting TMD-8 cells at 9×10^6 cells/mouse to the right subcutaneous flank of each animal, and when the size of the transplanted tumor reached about 200 mm^3, drug administration was started ([…]). The test drug was suspended in a solution of 20% PEG400 and 3% Tween 80, and orally administered once a day for 14 days. After the test drug was administered, the diameter of the tumor (that is, a long diameter (a) and a short diameter (b) was measured using a calipers every 2 to 3 days, and according to a mathematical formula [size (mm^3) of tumor=(a×b^2)/2], the size (mm^3) of tumor was calculated, and is illustrated in FIGS. 3 and 4. As control drugs, PF-06650833 (Sigma) and ibrutinib (Medichem Express) were purchased and used, and the statistical significance of the antitumor effect of the test drug was verified using a student's T-test (SigmaStat, Jandel Scientific) program.
# [2] = system: IFN-α secretion, peripheral blood mononuclear cells (PBMCs); assay: Suppression of IFN-α secretion in ODN2216-treated PBMCs (ELISA); format: cell-based; conditions: PBMC, 500 nM ODN2216, 72 hours, read-out: IFN-α, % inhibition degree
# Outline: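 PBMCs (1×10^5 cells/well for TNF-α, 2×10^5 for IFN-α) preincubated 30 min with compound, then stimulated with 100 ng/ml LPS for 24 h (TNF-α) or 500 nM ODN2216 for 72 h (IFN-α). Cytokines in supernatants quantified by sandwich ELISA with TMB, absorbance 450/570 nm.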
smiles,measurement,setting,value
"Fc1cncc(-c2ccc3[nH]c4ncnc(N[C@H]5CC[C@H](N6CCOCC6)CC5)c4c3c2)c1 [Compound 6aaf, 6-(5-fluoropyridin-3-yl)-N-(trans-4-morpholinocyclohexyl)-9H-pyrimido[4,5-b]indole-4-amine]",antitumor effect (tumor size) in combination with ibrutinib,"[1]; administered in combination with ibrutinib, oral, once a day for 14 days",excellent effect
same,change in body weight of the experimental animals,[1]; during the test period,not much change
same,antitumor effect (tumor size) compared to PF-06650833,"[1]; oral, once a day for 14 days, TMD-8 xenograft","did not show a significant difference in effect when compared to PF-06650833, but showed a slightly better tendency"
same,inhibition at 0.1 µM,[2]; 0.1 μM,48%
same,inhibition at 1 µM,[2]; 1 μM,96%
